Measurements taken from ChEMBL document CHEMBL3739386, “Synthesis and biological evaluation of picolinamides and thiazole-2-carboxamides as mGluR5 (metabotropic glutamate receptor 5) antagonists” (Bioorg Med Chem Lett, 2016).

Key:
[1] = molecular target: T1, Metabotropic glutamate receptor 5 (Homo sapiens, UniProt P41594); assay: Antagonist activity at mGlu5 receptor (unknown origin) expressed in HEK cells assessed as inhibition of glutamate-induced calcium flux at 1 uM by fluorescence based assay; assay type: functional, cell-based; settings: HEK293
Target sequence in this assay (P41594 21-1212 limits assumed): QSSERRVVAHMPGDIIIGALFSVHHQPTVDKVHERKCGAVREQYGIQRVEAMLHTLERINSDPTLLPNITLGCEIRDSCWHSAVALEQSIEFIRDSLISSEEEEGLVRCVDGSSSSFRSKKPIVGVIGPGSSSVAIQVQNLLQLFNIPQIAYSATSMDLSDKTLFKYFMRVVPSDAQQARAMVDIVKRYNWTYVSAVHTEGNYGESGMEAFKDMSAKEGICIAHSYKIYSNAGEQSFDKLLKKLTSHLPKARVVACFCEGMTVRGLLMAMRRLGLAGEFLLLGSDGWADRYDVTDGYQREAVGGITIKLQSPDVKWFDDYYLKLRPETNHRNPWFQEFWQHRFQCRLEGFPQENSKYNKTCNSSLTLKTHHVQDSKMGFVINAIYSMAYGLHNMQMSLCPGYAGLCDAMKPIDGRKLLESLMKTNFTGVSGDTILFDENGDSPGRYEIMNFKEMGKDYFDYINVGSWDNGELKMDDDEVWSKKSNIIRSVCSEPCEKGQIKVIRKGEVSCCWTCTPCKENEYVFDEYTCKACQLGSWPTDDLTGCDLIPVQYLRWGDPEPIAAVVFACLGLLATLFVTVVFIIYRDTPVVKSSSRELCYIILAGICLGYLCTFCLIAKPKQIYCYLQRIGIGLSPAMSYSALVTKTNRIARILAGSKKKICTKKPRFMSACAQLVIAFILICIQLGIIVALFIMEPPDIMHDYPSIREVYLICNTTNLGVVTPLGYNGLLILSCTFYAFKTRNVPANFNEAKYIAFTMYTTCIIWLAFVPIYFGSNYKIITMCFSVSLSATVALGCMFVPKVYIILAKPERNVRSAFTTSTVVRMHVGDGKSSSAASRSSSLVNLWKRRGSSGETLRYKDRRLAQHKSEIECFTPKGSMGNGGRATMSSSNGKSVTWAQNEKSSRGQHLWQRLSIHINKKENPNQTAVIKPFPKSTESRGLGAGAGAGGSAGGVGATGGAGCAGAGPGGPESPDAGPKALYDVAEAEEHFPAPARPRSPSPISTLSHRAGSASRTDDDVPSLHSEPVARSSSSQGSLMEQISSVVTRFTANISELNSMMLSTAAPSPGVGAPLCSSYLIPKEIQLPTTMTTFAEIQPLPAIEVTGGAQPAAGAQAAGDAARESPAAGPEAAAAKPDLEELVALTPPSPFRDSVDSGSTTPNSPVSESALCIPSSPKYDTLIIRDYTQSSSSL

[2] = molecular target: T1, Metabotropic glutamate receptor 5; assay: Antagonist activity at mGlu5 receptor (unknown origin) expressed in HEK cells assessed as inhibition of glutamate-induced calcium flux at 10 uM by fluorescence based assay; assay type: functional, cell-based; settings: HEK293
Target sequence in this assay (P41594 21-1212 limits assumed): as above

hERG (KCNH2) [3] = molecular target: T2, hERG (KCNH2) (Homo sapiens, UniProt Q12809); assay: Inhibition of human ERG at 1 uM by patch-clamp method
T2 sequence (Q12809 whole entry): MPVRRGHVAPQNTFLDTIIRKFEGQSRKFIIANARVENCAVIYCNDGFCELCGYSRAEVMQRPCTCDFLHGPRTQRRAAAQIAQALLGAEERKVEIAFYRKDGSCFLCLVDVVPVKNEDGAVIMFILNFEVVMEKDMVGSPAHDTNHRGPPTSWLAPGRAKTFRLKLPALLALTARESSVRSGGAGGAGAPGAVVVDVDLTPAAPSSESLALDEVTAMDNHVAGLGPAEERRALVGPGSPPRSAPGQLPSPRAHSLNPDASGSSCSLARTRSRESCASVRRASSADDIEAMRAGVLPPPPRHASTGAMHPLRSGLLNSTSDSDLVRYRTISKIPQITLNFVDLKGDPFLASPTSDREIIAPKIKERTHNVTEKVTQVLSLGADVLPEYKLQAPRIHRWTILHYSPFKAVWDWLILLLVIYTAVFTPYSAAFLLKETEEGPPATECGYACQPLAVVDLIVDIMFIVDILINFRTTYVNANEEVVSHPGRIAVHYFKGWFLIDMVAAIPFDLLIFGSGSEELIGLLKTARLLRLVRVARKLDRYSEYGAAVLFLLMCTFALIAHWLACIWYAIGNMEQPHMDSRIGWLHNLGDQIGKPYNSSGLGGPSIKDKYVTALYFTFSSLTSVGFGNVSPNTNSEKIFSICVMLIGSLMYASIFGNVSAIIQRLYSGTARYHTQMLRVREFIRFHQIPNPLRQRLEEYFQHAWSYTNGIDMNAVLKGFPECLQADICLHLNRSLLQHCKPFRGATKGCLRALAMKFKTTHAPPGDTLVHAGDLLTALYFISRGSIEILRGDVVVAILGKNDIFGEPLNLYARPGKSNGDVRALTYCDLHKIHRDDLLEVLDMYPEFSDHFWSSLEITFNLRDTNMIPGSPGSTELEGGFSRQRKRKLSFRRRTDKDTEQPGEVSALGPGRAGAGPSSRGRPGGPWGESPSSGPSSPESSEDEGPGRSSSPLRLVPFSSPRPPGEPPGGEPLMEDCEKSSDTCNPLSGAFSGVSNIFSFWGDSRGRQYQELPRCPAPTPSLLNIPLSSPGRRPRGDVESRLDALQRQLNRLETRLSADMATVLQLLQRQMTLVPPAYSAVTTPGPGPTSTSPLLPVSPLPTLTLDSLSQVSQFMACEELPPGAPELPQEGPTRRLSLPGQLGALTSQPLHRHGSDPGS

CYP3A4 = CYP3A4 (Homo sapiens, UniProt P08684); assay: Inhibition of human CYP3A4 assessed as remaining activity at 10 uM; assay type: ADME; settings: read-out: Activity
Sequence of CYP3A4 (P08684 whole entry): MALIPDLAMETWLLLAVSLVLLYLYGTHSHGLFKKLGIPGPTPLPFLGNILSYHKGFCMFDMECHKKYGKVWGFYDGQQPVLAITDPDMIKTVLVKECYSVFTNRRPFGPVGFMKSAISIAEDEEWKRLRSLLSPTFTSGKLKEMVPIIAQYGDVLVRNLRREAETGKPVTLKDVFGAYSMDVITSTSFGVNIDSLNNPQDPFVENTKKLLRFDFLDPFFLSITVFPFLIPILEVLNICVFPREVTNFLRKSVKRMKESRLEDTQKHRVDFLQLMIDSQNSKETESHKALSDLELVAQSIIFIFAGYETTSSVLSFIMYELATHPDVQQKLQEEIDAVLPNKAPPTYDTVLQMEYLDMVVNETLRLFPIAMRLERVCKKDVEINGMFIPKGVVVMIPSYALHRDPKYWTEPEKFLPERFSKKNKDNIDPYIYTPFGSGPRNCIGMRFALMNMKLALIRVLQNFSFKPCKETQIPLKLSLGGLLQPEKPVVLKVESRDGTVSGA

CYP1A2 = molecular target: T3, CYP1A2 (Homo sapiens, UniProt P05177); assay: Inhibition of human CYP1A2 assessed as remaining activity at 10 uM; assay type: ADME; settings: read-out: Activity
T3 sequence (P05177 whole entry): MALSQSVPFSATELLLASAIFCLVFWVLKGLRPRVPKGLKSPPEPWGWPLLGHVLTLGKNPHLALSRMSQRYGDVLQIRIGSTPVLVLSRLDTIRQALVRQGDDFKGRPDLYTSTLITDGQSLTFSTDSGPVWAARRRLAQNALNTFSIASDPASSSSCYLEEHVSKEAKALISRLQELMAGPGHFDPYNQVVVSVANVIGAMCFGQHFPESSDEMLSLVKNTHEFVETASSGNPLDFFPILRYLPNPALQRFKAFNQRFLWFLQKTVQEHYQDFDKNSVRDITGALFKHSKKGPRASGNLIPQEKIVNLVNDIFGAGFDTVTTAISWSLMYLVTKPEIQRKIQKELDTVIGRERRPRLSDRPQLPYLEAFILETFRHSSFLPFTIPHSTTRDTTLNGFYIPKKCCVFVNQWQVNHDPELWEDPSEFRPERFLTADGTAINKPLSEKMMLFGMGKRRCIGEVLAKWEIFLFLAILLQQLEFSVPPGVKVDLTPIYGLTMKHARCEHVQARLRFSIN

hERG (KCNH2) [4] = molecular target: T2, hERG (KCNH2); assay: Inhibition of human ERG at 0.1 uM by patch-clamp method
CYP2C9 = CYP2C9 (Homo sapiens, UniProt P11712); assay: Inhibition of human CYP2C9 assessed as remaining activity at 10 uM; assay type: ADME; settings: read-out: Activity
CYP2D6 = CYP2D6 (Homo sapiens, UniProt P10635); assay: Inhibition of human CYP2D6 assessed as remaining activity at 10 uM; assay type: ADME; settings: read-out: Activity
Sequence of CYP2D6 (P10635 whole entry): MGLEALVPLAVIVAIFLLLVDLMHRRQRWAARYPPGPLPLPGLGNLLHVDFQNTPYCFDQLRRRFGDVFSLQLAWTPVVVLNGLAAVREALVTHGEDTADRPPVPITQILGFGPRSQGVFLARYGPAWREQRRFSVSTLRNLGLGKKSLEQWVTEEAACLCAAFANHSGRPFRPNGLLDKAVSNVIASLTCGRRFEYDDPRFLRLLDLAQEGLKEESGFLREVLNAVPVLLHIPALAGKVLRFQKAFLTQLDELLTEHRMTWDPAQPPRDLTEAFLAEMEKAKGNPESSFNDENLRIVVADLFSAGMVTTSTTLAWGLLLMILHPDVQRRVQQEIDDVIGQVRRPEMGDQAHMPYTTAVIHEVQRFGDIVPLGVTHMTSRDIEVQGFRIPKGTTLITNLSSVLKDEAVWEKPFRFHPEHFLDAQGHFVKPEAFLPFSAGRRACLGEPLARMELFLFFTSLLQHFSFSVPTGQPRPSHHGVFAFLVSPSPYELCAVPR

[5] = molecular target: T1, Metabotropic glutamate receptor 5; assay: Antagonist activity at mGlu5 receptor (unknown origin) expressed in HEK cells assessed as inhibition of glutamate-induced calcium flux by fluorescence based assay; assay type: functional, cell-based, HEK293
Target sequence in this assay (P41594 whole entry): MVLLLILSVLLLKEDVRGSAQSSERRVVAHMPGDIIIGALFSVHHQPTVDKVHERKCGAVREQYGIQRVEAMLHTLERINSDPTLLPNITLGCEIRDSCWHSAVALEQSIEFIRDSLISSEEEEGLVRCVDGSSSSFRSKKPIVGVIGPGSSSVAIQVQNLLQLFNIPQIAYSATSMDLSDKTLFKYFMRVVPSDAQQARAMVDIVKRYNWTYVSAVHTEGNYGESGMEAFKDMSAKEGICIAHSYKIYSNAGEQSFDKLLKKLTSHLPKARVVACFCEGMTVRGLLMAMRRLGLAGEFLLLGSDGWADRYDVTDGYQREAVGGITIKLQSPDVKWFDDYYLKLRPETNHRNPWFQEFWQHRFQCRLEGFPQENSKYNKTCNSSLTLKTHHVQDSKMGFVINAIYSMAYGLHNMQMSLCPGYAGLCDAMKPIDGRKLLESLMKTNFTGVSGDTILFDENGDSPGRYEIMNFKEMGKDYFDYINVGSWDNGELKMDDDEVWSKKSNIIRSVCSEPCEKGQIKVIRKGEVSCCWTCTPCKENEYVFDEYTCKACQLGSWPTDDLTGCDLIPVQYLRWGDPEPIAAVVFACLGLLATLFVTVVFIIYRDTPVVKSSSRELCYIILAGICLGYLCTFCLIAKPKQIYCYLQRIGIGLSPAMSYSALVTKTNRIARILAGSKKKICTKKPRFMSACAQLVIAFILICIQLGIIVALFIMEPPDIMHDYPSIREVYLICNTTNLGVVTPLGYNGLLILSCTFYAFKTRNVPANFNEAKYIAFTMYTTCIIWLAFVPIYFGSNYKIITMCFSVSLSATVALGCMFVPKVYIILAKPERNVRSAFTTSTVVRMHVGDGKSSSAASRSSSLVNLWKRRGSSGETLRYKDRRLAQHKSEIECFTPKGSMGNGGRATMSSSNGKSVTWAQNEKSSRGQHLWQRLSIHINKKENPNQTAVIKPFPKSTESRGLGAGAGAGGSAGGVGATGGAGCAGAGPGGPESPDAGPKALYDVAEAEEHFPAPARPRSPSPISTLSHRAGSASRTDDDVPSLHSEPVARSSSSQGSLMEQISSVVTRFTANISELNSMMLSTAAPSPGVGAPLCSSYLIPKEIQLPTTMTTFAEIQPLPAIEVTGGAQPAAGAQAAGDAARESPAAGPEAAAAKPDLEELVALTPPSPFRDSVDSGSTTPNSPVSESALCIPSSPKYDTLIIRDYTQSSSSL

[6] = Metabolic stability in human liver microsomes assessed as compound remaining at 1 uM after 30 mins; assay type: ADME; settings: read-out: Stability
hERG (KCNH2) [7] = molecular target: T2, hERG (KCNH2); assay: Inhibition of human ERG at 10 uM by patch-clamp method
CYP2C19 = CYP2C19 (Homo sapiens, UniProt P33261); assay: Inhibition of human CYP2C19 assessed as remaining activity at 10 uM; assay type: ADME; settings: read-out: Activity
Sequence of CYP2C19 (P33261 whole entry): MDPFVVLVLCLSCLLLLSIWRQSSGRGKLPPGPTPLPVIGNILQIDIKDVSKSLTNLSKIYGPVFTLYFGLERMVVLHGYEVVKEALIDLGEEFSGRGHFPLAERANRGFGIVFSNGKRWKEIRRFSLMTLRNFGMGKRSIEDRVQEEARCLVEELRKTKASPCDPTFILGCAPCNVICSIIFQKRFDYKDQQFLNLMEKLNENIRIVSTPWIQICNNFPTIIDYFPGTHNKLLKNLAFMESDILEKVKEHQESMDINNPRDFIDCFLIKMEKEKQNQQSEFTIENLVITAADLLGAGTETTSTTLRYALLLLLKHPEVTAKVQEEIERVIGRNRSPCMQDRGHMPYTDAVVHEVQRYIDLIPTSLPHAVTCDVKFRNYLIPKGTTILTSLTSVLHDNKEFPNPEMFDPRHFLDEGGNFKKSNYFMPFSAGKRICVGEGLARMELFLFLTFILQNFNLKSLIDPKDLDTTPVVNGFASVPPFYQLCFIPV

inhibition [1] [%]	inhibition [2] [%]	Compound	also measured
8.3	–	N#Cc1cccc(NC(=O)c2nc(C#N)cs2)n1	–
9.6	–	N#Cc1cccc(NC(=O)c2nc(Br)cs2)n1	–
22.8	23.1	COc1cccc(C(=O)Nc2cccnc2)n1	–
58.1	–	O=C(Nc1cccc(Cl)c1)c1nc(Br)cs1	–
19.8	–	O=C(Nc1cccc(Br)n1)c1nc(Br)cs1	–
47.1	–	Cc1csc(C(=O)Nc2ccccn2)n1	–
19.1	33.4	O=C(Nc1cccnc1)c1cccc(Cl)n1	–
3.2	34	N#Cc1cccc(NC(=O)c2cccc(F)n2)c1	–
16.1	17.7	Cc1ccnc(Cl)c1NC(=O)c1ccccn1	–
18.5	43.4	COc1ccc(NC(=O)c2cccc(Cl)n2)cn1	–
45	–	Cc1csc(C(=O)Nc2cccc(Cl)n2)n1	–
3.1	–	Cc1csc(C(=O)Nc2cccc(F)c2)n1	–
24.7	–	Cc1cccc(NC(=O)c2nc(C#N)cs2)n1	–
19.5	–	N#Cc1csc(C(=O)Nc2cccc(Br)c2)n1	–
40.9	–	Cc1cccc(NC(=O)c2nc(Br)cs2)c1	–
3.85	35.4	O=C(Nc1ccc(Cl)nc1Cl)c1ccccn1	–
16.2	30.7	O=C(Nc1ccc(Cl)cn1)c1ccccn1	–
13.7	–	O=C(Nc1cccc(F)c1)c1nc(Br)cs1	–
-7.3	–	N#Cc1csc(C(=O)Nc2cccc(Cl)c2)n1	–
50.1	–	Cc1cccc(NC(=O)c2nc(C)cs2)n1	–

inhibition [1] [%]	inhibition [2] [%]	Compound	also measured
25.6	30.3	O=C(Nc1cccnc1)c1ccccn1	–
14	25.5	COc1ccc(NC(=O)c2ccccn2)cn1	–
-0.4	–	N#Cc1csc(C(=O)Nc2cccc(F)n2)n1	–
11.6	–	Cc1cccc(NC(=O)c2nc(C)cs2)c1	–
18.4	68.1	Cc1cccc(C(=O)Nc2cccc(C#N)c2)n1	–
15.7	18.6	Cc1ccnc(Cl)c1NC(=O)c1cccc(Cl)n1	–
81	–	Cc1cccc(NC(=O)c2nc(Br)cs2)n1	inhibition at 1 µM (hERG (KCNH2) [3]): 19.4%; activity at 10 µM (CYP3A4): 87.3%; activity at 10 µM (CYP1A2): 11%; inhibition at 0.1 µM (hERG (KCNH2) [4]): 15%; activity at 10 µM (CYP2C9): 88.2%; activity at 10 µM (CYP2D6): 99.2%; IC50 [5]: 159 nM; remaining at 0.5 h, 1 µM [6]: 7.25%; inhibition at 10 µM (hERG (KCNH2) [7]): 34.8%; activity at 10 µM (CYP2C19): 7.4%
60	–	O=C(Nc1cccc(Cl)n1)c1nc(Br)cs1	–
32.2	–	Cc1csc(C(=O)Nc2cccc(Cl)c2)n1	–
27.6	–	O=C(Nc1cccc(F)n1)c1nc(Br)cs1	–
13.1	33.4	O=C(Nc1cccc(Cl)c1)c1cccc(F)n1	–
-0.1	–	N#Cc1cccc(NC(=O)c2nc(Br)cs2)c1	–
10.5	52.1	Cc1cccc(C(=O)Nc2cccc(Cl)c2)n1	–
13.8	51	O=C(Nc1cc(Cl)cnc1Cl)c1ccccn1	–
71.1	–	O=C(Nc1cccc(Br)c1)c1nc(Br)cs1	inhibition at 1 µM (hERG (KCNH2) [3]): 29.3%; activity at 10 µM (CYP3A4): 84.9%; activity at 10 µM (CYP1A2): 38.3%; inhibition at 0.1 µM (hERG (KCNH2) [4]): 16.3%; activity at 10 µM (CYP2C9): 99%; activity at 10 µM (CYP2D6): 102%; IC50 [5]: 274 nM; remaining at 0.5 h, 1 µM [6]: 37.3%; inhibition at 10 µM (hERG (KCNH2) [7]): 39.6%; activity at 10 µM (CYP2C19): 86.3%
-9.4	–	N#Cc1csc(C(=O)Nc2cccc(Cl)n2)n1	–
18	–	Cc1csc(C(=O)Nc2cccc(Br)c2)n1	–
16.6	–	Cc1csc(C(=O)Nc2cccc(C#N)c2)n1	–
34.5	65.5	O=C(Nc1ccccn1)c1ccccn1	–
